Broadly, the EC50 is the midpoint of the concentration-response curve. The solubility is the dissolved amount per volume that the medium holds.

Data set [1] has as its system integrin VLA-4 on U937 FPRΔST cells. In words: Integrin activation assay (LDV-FITC binding). The conditions noted are these: LDV-FITC 4 nM, fMLFF 100 nM. The class given is cell-based. On the procedure:
The procedure followed the protocols described previously. U937 FPRΔST cells (0.4~0.8 x 10^6 cells/mL) were continuously stirred with a magnetic stir bar at 500 rpm in a test tube. The fluorescence was recorded on a FACScan flow cytometer. The baseline fluorescence of the cells was established for 30 s. Then LDV-FITC at 4 nM was added. After the fluorescence stabilized at ~120 s, the chemotactic ligand fMLFF at 100 nM was added for stimulation. […] All the concentrations given were the final concentrations. The percent inhibition was calculated according to Equation 1 (Supporting Information).

Data set [2] concerns GTPases (H-Ras, H-Ras G12V, Cdc42, Cdc42 Q61L, Rac1, Rac1 Q61L, RhoA, Rab7). In words: Multiplex dose-response assay, statements across the GTPase panel. Particulars: for inhibitory activity on BODIPY-FL GTP binding across all GTPases tested (in words): SAR versus compound 1.
Experimental: Briefly, individual GST-GTPases were separately attached to glutathione microsphere beads that were labeled with varying intensity of red fluorescent dye, and subsequently combined. The buffer contains 30 mM HEPES (pH 7.2), 150 mM KCl, 20 mM NaCl, 0.1% BSA, 1 mM DTT, 1 mM EDTA and 0.1% NP-40. For Rho A and Rac1, 1 mM EDTA was replaced with 1 mM MgCl2 to stabilize the protein. […] To study whether the compounds are slow binders, BODIPY^- FL GTP was added either immediately or 2 h after compound addition. […] The curves were fitted to the sigmoidal dose-response equation using GraphPad Prism. Percent response was calculated as the ratio of (sample MCF–negative control MCF) / (positive control MCF–negative control MCF).
A further data set addresses H-Ras (Homo sapiens, UniProt P01112). Nature of the data set: Multiplex bead-based flow cytometry dose-response of fluorescent guanine nucleotide binding. Particulars: read-out: EC50 H-Ras; BODIPY-FL GTP binding; 2 h at 4°C.
The next data set has as its target H-Ras G12V (Homo sapiens, UniProt P01112, G12V). The data set is described as above. The conditions noted are these: read-out: EC50 H-Ras G12V; BODIPY-FL GTP binding; 2 h at 4°C.
The next data set deals with Cdc42 (Homo sapiens, UniProt P60953). Described as above. Particulars: read-out: EC50 Cdc42; BODIPY-FL GTP binding; 2 h at 4°C.
The target of another data set is Cdc42 Q61L (Homo sapiens, UniProt P60953, Q61L). Described as above. Particulars: read-out: EC50 Cdc42 Q61L; BODIPY-FL GTP binding; 2 h at 4°C.
Another data set concerns the target RhoA (Homo sapiens, UniProt P61586). Described as above. Particulars: read-out: EC50 RhoA; BODIPY-FL GTP binding; 2 h at 4°C; 1 mM MgCl2.
A further data set concerns the target Rac1 (Homo sapiens, UniProt P63000). The description is as above. The conditions noted are these: read-out: EC50 Rac1; BODIPY-FL GTP binding; 2 h at 4°C; 1 mM MgCl2.
A further data set addresses Rac1 Q61L (Homo sapiens, UniProt P63000, Q61L). The data set is described as above. Particulars: read-out: EC50 Rac1 Q61L; BODIPY-FL GTP binding; 2 h at 4°C.
Data set [3] relates to integrin VLA-4 on U937 FPRΔST cells. Further details: method as in PMID 23382385. The conditions noted are these: cited from earlier work.
A short description of data set [4]: Solubility in PBS and assay media. The data set is classed as physicochemical. On the procedure: page 7: conclusion, the available data support the idea that compound CID1067700 has non-classical competitive character. […] Solubility was measured in phosphate buffered saline (PBS) at room temperature (23 °C). PBS by definition is 137 mM NaCl, 2.7 mM KCl, 10 mM sodium phosphate dibasic, 2 mM potassium phosphate [monobasic and a pH of 7.4. Detection was based on UV absorbance. […] Solubility was also assessed in the each of the four media used in the individual assays. […] Table 1S. […] Stability, depicted as closed circles in the graph, was assessed at room temperature (23 °C) in PBS (no antioxidants or other protectants and DMSO concentration below 0.1%). Stability data is depicted in Fig. S8 showing the loss of compound with time over a 48 h period with a minimum of 6 time points and providing the percent remaining compound at end of the 48 h period. Under these conditions, 77% of 1 remains after 48 hours. The degradation has not been further characterized.

The next data set has as its target Rab7 (Canis lupus familiaris, UniProt P18067). In words: Multiplex bead-based flow cytometry dose-response of fluorescent guanine nucleotide binding. Particulars: read-out: EC50 Rab7; BODIPY-FL GTP binding; 2 h at 4°C.
[5] abbreviates: 30mM HEPES, pH 7.5, 100mM KCl, 20mM NaCl, 0.01% (v/v) NP-40.
Where [6] appears, read: 30mM HEPES, pH 7.5, 100mM KCl, 20mM NaCl, 0.01% (v/v) NP-40, read-out: Solubility, Dose Response-buffer.
[7] abbreviates: DMEM/F-12, read-out: Solubility, EGFR degradation assay medium.
Setting [8] is: RPMI 1640 + 10% HI-FBS, read-out: Solubility, LDV-FITC assay buffer.

Converted amounts (≈) assume the structure as drawn. Like-named read-outs stand apart in the source and are kept apart here. Bounds are passed on as bounds.

Chain of Rab7 (P18067 2-207 limits assumed): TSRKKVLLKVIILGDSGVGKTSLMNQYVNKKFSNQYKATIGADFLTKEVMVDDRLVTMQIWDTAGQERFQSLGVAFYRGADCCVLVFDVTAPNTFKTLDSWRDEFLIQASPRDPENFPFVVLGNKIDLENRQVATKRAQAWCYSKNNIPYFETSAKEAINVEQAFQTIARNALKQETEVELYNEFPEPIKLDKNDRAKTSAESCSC
Chain of H-Ras G12V (P01112 whole entry G12V): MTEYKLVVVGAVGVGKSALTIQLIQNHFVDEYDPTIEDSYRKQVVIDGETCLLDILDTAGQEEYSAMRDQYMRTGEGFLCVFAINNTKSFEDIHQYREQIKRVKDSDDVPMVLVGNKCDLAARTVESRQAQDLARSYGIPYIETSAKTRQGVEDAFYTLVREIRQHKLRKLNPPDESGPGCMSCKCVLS
Chain of Cdc42 Q61L (P60953 whole entry Q61L): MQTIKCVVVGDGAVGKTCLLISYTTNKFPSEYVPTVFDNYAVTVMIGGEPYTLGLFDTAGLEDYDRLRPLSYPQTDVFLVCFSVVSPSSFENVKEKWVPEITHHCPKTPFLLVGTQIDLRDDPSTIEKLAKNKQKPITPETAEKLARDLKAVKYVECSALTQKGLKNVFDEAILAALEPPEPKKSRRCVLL
Chain of RhoA (P61586 whole entry): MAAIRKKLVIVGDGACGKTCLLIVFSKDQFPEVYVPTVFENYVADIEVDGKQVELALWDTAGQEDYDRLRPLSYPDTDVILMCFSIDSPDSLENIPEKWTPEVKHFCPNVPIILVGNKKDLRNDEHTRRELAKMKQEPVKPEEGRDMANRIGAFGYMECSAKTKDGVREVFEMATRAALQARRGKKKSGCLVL
Chain of H-Ras (P01112 whole entry): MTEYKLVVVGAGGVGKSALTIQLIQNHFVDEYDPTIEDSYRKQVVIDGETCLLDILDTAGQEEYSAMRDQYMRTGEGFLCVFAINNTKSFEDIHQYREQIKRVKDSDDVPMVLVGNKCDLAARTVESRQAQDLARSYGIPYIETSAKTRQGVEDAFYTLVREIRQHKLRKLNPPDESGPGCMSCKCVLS
Chain of Cdc42 (P60953 whole entry): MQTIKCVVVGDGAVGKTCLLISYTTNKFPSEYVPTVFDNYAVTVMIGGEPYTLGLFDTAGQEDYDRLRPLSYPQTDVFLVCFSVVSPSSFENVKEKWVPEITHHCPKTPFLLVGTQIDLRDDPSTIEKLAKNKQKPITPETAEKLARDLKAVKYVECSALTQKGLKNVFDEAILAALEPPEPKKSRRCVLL

As for `O=C(NC(=S)Nc1sc2c(c1C(=O)O)CCOC2)c1ccccc1` [Compound 3], in data set [1], the “integrin VLA-4 activation (LDV-FITC binding after fMLFF)” value is “dose-dependently blocked integrin activation”. Moreover, the “inhibitory activity on BODIPY-FL GTP binding across all GTPases tested (in words)” value (“inhibitory activity” below) in data set [2] is “did not cause a significant change in potency”. Besides, the EC50 stood at 0.17 ± 0.094 µM at H-Ras; 0.12 ± 0.12 µM on H-Ras G12V; 0.11 ± 0.064 µM on Cdc42; 0.13 ± 0.078 µM on Cdc42 Q61L; 0.23 ± 0.21 µM at RhoA; 180 ± 130 nM on Rac1. Also, at Rac1 Q61L, the half-maximal effective concentration (EC50) is 230 ± 220 nM.
As for `COc1ccc(C2CC(c3ccccc3)=NN2c2ccc(S(N)(=O)=O)cc2)cc1` (stereo not drawn) [CID2950007], the integrin activation entry in data set [3] was “decrease the integrin activation in a dose-dependent fashion”.
For `CC1(C)Cc2c(sc(NC(=S)NC(=O)c3ccccc3Br)c2C(=O)O)CO1` [Compound 10], the “Solubility, Dose Response-buffer” value in data set [4] (setting [5]) is listed as more than 93 µg/mL. The solubility in data set [4] (setting [6]), in data set [4] (setting [7]) and in data set [4] (setting [8]) was more than 198 µM each time. Also, in data set [4] (DMEM/F-12), the “Solubility, EGFR degradation assay medium” value was more than 93 µg/mL. Further, the “Solubility, LDV-FITC assay buffer” value in data set [4] (RPMI 1640 + 10% HI-FBS) was more than 93 µg/mL. The EC50 at Rab7 turned out to be 0.43 ± 0.68 µM; at H-Ras, 0.62 ± 1 µM; at H-Ras G12V it was 0.43 ± 0.68 µM; at Cdc42, 46.8 ± 66 µM; on Cdc42 Q61L, 14.8 ± 20.8 µM; at RhoA, 0.48 ± 0.74 µM. For the same compound, the 50% effective concentration (EC50) on Rac1 was 600 ± 800 nM; at Rac1 Q61L, 420 ± 650 nM.
Consider `COC(=O)c1c(NC(=S)NC(=O)c2ccccc2)sc2c1CC(C)(C)OC2` [Compound 2], for which the “inhibitory activity” value in data set [2] was “loss of activity”. The EC50 at Rab7, at H-Ras, at H-Ras G12V, on Cdc42 and at Cdc42 Q61L was more than 1000 µM each time.
Turning to `CC1(C)Cc2c(sc(NC(=S)NC(=O)c3ccc(F)cc3)c2C(=O)O)CO1` [Compound 9], in data set [4] (setting [5]), the “Solubility, Dose Response-buffer” value is more than 69.1 µg/mL. In addition, the “Solubility, EGFR degradation assay medium” value in [4] (DMEM/F-12) stood at 67.6 µg/mL (≈ 165 µM). Moreover, the solubility was 165.5 µM (≈ 67.6 µg/mL) in [4] (setting [7]) and 282.3 µM in data set [4] (setting [8]). In addition, the “Solubility, LDV-FITC assay buffer” value in data set [4] (RPMI 1640 + 10% HI-FBS) is on record as 115.3 µg/mL. Besides, the EC50 on Rab7 came to 0.41 ± 0.19 µM; at H-Ras it was 0.33 ± 0.22 µM; at H-Ras G12V, 0.091 µM; at Cdc42 it was 1 ± 1.2 µM; on Cdc42 Q61L, 0.88 ± 0.47 µM; at RhoA, 0.11 µM. The EC50 amounted to 150 nM at Rac1 and 130 nM at Rac1 Q61L.
In the case of `CC1(C)Cc2c(sc(NC(=O)Cc3ccccc3)c2C(=O)O)CO1` [Compound 4], the “inhibitory activity” value in data set [2] is “inactive”. In addition, the EC50 at Rab7, on H-Ras, at H-Ras G12V, on Cdc42 and at Cdc42 Q61L was more than 1000 µM in each case.
On to `CC1(C)Cc2c(sc(NC(=S)Nc3ccccc3)c2C(=O)O)CO1` [Compound 5], for which, in data set [2], the “inhibitory activity” value is “inactive”.
Turning to `COc1cccc(C(=O)NC(=S)Nc2sc3c(c2C(=O)O)CC(C)(C)OC3)c1` [Compound 7], the “Solubility, Dose Response-buffer” value in [4] (setting [5]) is more than 29.7 µg/mL. In addition, the values for the solubility in [4] (setting [6]), in data set [4] (setting [7]) and in [4] (setting [8]) were more than 70.6 µM, 129.6 µM (≈ 54.5 µg/mL) and more than 197.4 µM, respectively. In data set [4] (DMEM/F-12), the “Solubility, EGFR degradation assay medium” value stood at 54.5 µg/mL (≈ 130 µM). Moreover, the “Solubility, LDV-FITC assay buffer” value in [4] (RPMI 1640 + 10% HI-FBS) was more than 83 µg/mL. Moreover, the EC50 worked out at 0.15 ± 0.13 µM at Rab7; 0.13 ± 0.13 µM on H-Ras; 0.12 ± 0.12 µM at H-Ras G12V; 0.58 ± 0.83 µM on Cdc42; 0.5 ± 0.71 µM at Cdc42 Q61L; 0.2 ± 0.13 µM on RhoA. Further, the EC50 at Rac1 was found to be 190 ± 60 nM; on Rac1 Q61L, 220 ± 140 nM.
For `CC1(C)Cc2c(sc(NC(=S)NC(=O)c3cccc(Br)c3)c2C(=O)O)CO1` [CID 53301936], the EC50 is 2.51 ± 2.1 µM on Rab7; 1.72 µM on H-Ras; 1.08 µM on H-Ras G12V; 192 ± 244 µM at Cdc42; 23.7 ± 23.9 µM on Cdc42 Q61L; more than 1000 µM at RhoA. Also, the 50% effective concentration (EC50) at Rac1 came out at 31100 nM; at Rac1 Q61L, 17800 nM.
In the case of `CC1(C)Cc2c(sc(NC(=O)NC(=O)c3ccccc3)c2C(=O)O)CO1` [Compound 6], the “loss in potency across all the GTPases” value in data set [2] (versus compound 1) was “more than 2 fold”. In addition, the EC50 on Rab7 turned out to be 0.31 ± 0.09 µM; at H-Ras, 0.44 ± 0.41 µM; at H-Ras G12V it was 0.49 ± 0.48 µM; on Cdc42 it was 17 µM; on Cdc42 Q61L, 0.47 µM; at RhoA, 0.33 ± 0.03 µM. Further, the EC50 turned out to be 350 ± 50 nM at Rac1 and 400 ± 20 nM at Rac1 Q61L.
Turning to `CC1(C)CCc2sc(NC(=S)NC(=O)c3ccccc3)c(C(=O)O)c2C1` [CID 53301937], the EC50 at Rab7 was determined as 0.066 ± 0.017 µM; on H-Ras it was 0.067 ± 0.024 µM; at H-Ras G12V it was 0.077 ± 0.024 µM; on Cdc42, 0.28 ± 0.16 µM; on Cdc42 Q61L, 0.17 ± 0.086 µM; on RhoA it was 0.071 ± 0.0096 µM. The values for the EC50 on Rac1 and on Rac1 Q61L were 68 ± 20 nM and 77 ± 31 nM, respectively.
Regarding `Cc1cccc(C(=O)NC(=S)Nc2sc3c(c2C(=O)O)CC(C)(C)OC3)c1` [CID 53377400], the EC50 amounted to 1.16 µM at Rab7; 1.39 µM at H-Ras; 0.85 µM at H-Ras G12V; 5.87 µM on Cdc42; 1.83 µM at Cdc42 Q61L; 1.45 µM on RhoA. The results for the EC50 on Rac1 and at Rac1 Q61L were 1510 nM and 1420 nM, respectively.
Regarding `Cc1ccccc1C(=O)NC(=S)Nc1sc2c(c1C(=O)O)CC(C)(C)OC2` [Compound 11], the EC50 was 0.41 µM at Rab7; 0.44 µM at H-Ras; 0.38 µM on H-Ras G12V; 2.66 µM at Cdc42; 1.35 µM on Cdc42 Q61L; 0.49 µM on RhoA. The results for the EC50 on Rac1 and at Rac1 Q61L were 440 nM and 370 nM, respectively.

The record behind these values is paper PMC4527730, “A Pan-GTPase Inhibitor as a Molecular Probe” (PLoS ONE, 2015).
